Test results reported in patent publication US12357711B2, “PSMA binding dual mode radiotracer and therapeutic” (Technische Universität München, priority 2019, dated 2025).
Where “and” joins values, the source holds several entries; their conditions need not be identical. Equal entries are not always repeated.

What was measured:
[1] = system: PSMA-positive LNCaP cells; test: Internalization in LNCaP cells, normalized to ([125I]I-BA)KuE; format: cell-based; conditions: LNCaP cells, 1 hour, 37° C.
Method: Data is corrected for non-specific binding ([…]) and expressed as mean±SD (n=3).
Subsequent to the removal of the culture medium, the cells were washed once with 500 μL DMEM-F12 (5% BSA) and left to equilibrate for at least 15 min at 37° C. in 200 μL DMEM-F12 (5% BSA). Each well was treated with either 25 μL of either DMEM-F12 (5% BSA) or a 100 μM PMPA solution for blockade. Next, 25 μL of the ^68Ga/^18F-labeled PSMA inhibitor (5.0 nM) was added and the cells incubated at 37° C. for 60 min. The experiment was terminated by placing the 24-well plate on ice for 3 min and consecutive removal of the medium. Each well was rinsed with 250 μL HBSS and the fractions from these first two steps combined, representing the amount of free radioligand. Removal of surface bound activity was accomplished by incubation of the cells with 250 μL of ice-cold PMPA (10 μM in PBS) solution for 5 min and rinsed again with another 250 μL of ice-cold PBS. The internalized activity was determined by incubation of the cells in 250 μL 1 M NaOH and the combination with the fraction of a subsequent wash step with 250 μL 1.0 M NaOH. Each experiment (control and blockade) was performed in triplicate. Free, surface bound and internalized activity was quantified in a γ-counter. […] Data were corrected for non-specific internalization and normalized to the specific-internalization observed for the radioiodinated reference compound.

[2] = Formation of F-18-fluoride / isotopic exchange in mouse urine; format: in vitro ADME, mice
Method: For in vivo μmetabolism studies, 8-12 MBq (<0.6 nmol) of the respective ^18F-labeled ligand (rhPSMA-7.1-7.4) was injected into the tail vein of female healthy CB17-SCID mice (n=4). Mice were left under anesthesia for 30 min and the urine was collected using a bladder catheter. Urine samples were pooled and centrifuged for 5 min at 9000 rpm to remove suspended solids. The supernatant was directly used for radio-HPLC analysis with the above mentioned conditions. […] Additionally, this experiment was carried out with the addition of excess Na^19F (0.5 μmop and incubation for 2 h with ^18F-labeled rhPSMA-7.3.
For this purpose normal mice were used. Urine samples were collected by means of a catheter over a period of 30 min. The urine was centrifuged and directly subjected to HPLC and TLC.
Consequently, fresh and nonradioactive urine samples collected from normal mice were incubated with [F-18]rhPSMA7.x for various time periods (see legend to FIG. 21).
To further support the hypothesis, 500 nmol cold F-19-fluoride was added to fresh and nonradioactive urine of mice, followed by the addition of [F-18]rhPSMA7.3 and incubation for 2 h. According to the hypothesis, the high concentration of [F-19]fluoride should result in the formation of a significant amount of [F-18]fluoride.

## CC(C)(C)[Si](F)(c1ccc(C(=O)NC[C@@H](NC(=O)CC[C@@H](C(=O)O)N2CCN(CC(=O)[O-])CCN(CC(=O)[O-])CCN(CC(=O)[O-])CC2)C(=O)N[C@H](CCCCNC(=O)CCC(=O)NCCC[C@@H](NC(=O)CC[C@H](NC(=O)N[C@@H](CCC(=O)O)C(=O)O)C(=O)O)C(=O)O)C(=O)O)cc1)C(C)(C)C.[Ga+3] [rhPSMA7.3, [^19F][^natGa]D-Dap-S-DOTAGA-rhPSMA7]
[1]; c=0.5 nM, single measurements
  individual internalization rates: 156.6 % of [^125I]IB-KuE and 156.0 % of [^125I]IB-KuE and 171.7 % of [^125I]IB-KuE
[1]; mean
  internalization rate Mean: 161.41 % of [^125I]IB-KuE
[2]; fresh nonradioactive mouse urine + 0.5 μmol (500 nmol) cold F-19-fluoride, incubation 2 h
  radioactivity converted to [F-18]fluoride: 98.5%
[2]; room temperature
  [F-18]rhPSMA7.3 proportion in radioactive urine after addition of 5 nmol [F-19]rhPSMA7-3: 85.8%
[2]; urine with 20.6% [F-18]Fluoride
  [F-18]rhPSMA7.3 proportion in radioactive urine before addition of cold tracer: 79.4%
